{
  "source": "patent US9119805B2",
  "about": "“Therapy and prevention of problem drinking” (THE UNIVERSITY OF SYDNEY, priority 2009, dated 2015)",
  "origin": "cited, not measured here",
  "key": {"dependent drinkers": {"tested_on": "dependent drinkers", "settings": "cited from earlier work"}, "vasopressin receptor": {"tested_on": "vasopressin receptor", "settings": "cited from earlier work"}, "[1]": {"settings": "compared with exogenously applied oxytocin; cited from earlier work"}, "[2]": {"settings": "animal tests; cited from earlier work"}, "oxytocin receptor": {"target": "oxytocin receptor (Homo sapiens, UniProt P30559)", "sequence (P30559 whole entry)": "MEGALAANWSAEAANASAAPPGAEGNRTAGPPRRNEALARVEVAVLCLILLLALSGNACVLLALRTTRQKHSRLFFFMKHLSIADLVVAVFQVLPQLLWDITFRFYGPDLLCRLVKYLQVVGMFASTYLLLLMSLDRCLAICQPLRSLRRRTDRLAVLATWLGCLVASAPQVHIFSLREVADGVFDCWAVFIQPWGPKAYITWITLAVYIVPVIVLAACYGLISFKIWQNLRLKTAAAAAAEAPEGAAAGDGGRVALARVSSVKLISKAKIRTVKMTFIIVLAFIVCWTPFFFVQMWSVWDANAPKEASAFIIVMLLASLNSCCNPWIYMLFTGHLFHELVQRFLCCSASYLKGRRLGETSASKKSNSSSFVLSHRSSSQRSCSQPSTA", "settings": "compared to native oxytocin; cited from earlier work"}},
  "note": "Starred links: 1 amine or outer side, 2 acyl side, 3 side chain; linkers in the order of their positions; H or OH if unused. Positions of bridges follow the written chain, without caps; N, C: chain ends. Residues, ends and D or L forms follow the SMILES beside them. X1 = O=C(CCC[*:2])[*:1]",
  "data": [
    {"smiles": "CC1(C)O[C@@H]2[C@@H](CO[C@@]3(COS(N)(=O)=O)OC(C)(C)O[C@@H]23)O1", "note": "[Topiramate]", "values": [
      {"measurement": "proportion of subjects with 28 consecutive days of abstinence or non-hazardous/harmful drinking", "setting": "dependent drinkers; short-term abstinence", "result": "increased the proportion"}
    ]},
    {"smiles": "Cc1cc(C(=O)N2Cc3cnn(C)c3Nc3ccccc32)ccc1CNC(=O)N1CCN(Cc2cc(O)cc(O)c2)CC1", "note": "[WAY-267,464]", "values": [
      {"measurement": "affinity for the vasopressin receptor", "setting": "vasopressin receptor", "result": "negligible affinity"},
      {"measurement": "extent of crossing the blood-brain-barrier", "setting": "[1]", "result": "significantly greater extent than exogenously applied oxytocin"},
      {"measurement": "anti-depressant effect", "setting": "[2]", "result": "no apparent anti-depressant effect"},
      {"measurement": "centrally-mediated oxytocinergic actions", "setting": "[2]", "result": "anxiolytic effects"}
    ]},
    {"smiles": "CC(=O)NCCCS(=O)(=O)O", "note": "[acamprosate]", "values": [
      {"measurement": "patients continuously abstinent", "setting": "dependent drinkers; after 6 months, placebo 23%", "result": "about 36%"}
    ]},
    {"smiles": "CC[C@H](C)[C@@H]1NC(=O)[C@H](Cc2ccc(OC)cc2)NC(=O)CCCSC[C@@H](C(=O)N2CCC[C@H]2C(=O)N[C@@H](CC(C)C)C(=O)NCC(N)=O)NC(=O)[C@H](CC(N)=O)NC(=O)[C@H](CCC(N)=O)NC1=O", "note": "[carbetocin, 1-deamino-1-monocarba-[2-O-methyltyrosine]-oxytocin] (Y(Me)IQNCPLG-NH2; linker N-5 via X1)", "values": [
      {"measurement": "duration of activity", "setting": "oxytocin receptor", "result": "long-lasting activity"}
    ]},
    {"smiles": "O=C1CC[C@@]2(O)[C@H]3Cc4ccc(O)c5c4[C@@]2(CCN3CC2CC2)[C@H]1O5", "note": "[naltrexone]", "values": [
      {"measurement": "reduction of relapse", "setting": "dependent drinkers; oral, during the first 3 months", "result": "about 36%"}
    ]}
  ]
}
